Measured values from US8058475B2, “Substituted cyclohexylmethyl compounds” (Gruenenthal GmbH, priority 2005, dated 2011).
Counter-ions that a name gives are not always drawn. Like-named read-outs stand apart in the source and are kept apart here.

Experiments:
[1] = target: human μ-opiate receptor (Homo sapiens, UniProt P35372); assay: Affinity for the human μ-opiate receptor ([3H]-naloxone displacement, SPA, CHO-K1 membrane preparation); format: binding; details: for inhibition at 1 µM: read-out: μ-Opioid receptor, % inhibition [1 μM]; for Ki: read-out: μ-Opioid receptor, Ki
Chain of human μ-opiate receptor (P35372 whole entry): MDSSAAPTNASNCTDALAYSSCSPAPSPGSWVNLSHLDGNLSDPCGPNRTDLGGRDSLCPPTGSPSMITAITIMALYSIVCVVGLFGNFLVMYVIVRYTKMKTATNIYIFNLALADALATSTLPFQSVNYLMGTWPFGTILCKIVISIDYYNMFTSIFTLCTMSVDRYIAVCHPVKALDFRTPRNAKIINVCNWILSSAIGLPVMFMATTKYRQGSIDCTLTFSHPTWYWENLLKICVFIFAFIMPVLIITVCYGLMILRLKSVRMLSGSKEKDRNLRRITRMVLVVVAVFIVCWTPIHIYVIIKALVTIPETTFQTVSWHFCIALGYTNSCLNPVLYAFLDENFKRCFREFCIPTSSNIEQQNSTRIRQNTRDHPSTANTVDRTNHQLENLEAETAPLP

[2] = target: T1, Noradrenaline (NA) reuptake (Rattus norvegicus, UniProt Q63380); assay: Noradrenaline (NA) reuptake inhibition in rat brain synaptosomes (hypothalamus, P2 fraction); format: biochemical
T1 construct: synaptosomes are freshly isolated from areas of rat brain; from tissue; host or cells: rat hypothalamus synaptosomes (P2 fraction)
T1 sequence (Q63380 1-617): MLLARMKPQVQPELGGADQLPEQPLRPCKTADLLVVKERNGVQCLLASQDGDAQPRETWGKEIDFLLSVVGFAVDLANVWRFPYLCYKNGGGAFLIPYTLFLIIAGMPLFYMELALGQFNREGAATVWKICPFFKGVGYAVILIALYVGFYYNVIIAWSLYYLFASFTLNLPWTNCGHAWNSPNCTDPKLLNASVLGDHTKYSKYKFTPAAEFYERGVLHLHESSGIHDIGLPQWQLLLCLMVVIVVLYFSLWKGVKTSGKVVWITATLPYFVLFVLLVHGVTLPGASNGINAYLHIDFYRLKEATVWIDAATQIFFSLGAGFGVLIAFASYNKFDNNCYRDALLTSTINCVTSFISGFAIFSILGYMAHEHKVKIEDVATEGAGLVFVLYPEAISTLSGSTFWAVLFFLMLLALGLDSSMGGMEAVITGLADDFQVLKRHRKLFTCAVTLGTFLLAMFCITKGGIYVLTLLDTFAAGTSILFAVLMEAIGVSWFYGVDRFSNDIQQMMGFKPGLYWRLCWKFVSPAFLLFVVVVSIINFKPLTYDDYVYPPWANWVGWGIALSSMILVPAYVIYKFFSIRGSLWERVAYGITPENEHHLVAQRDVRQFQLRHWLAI
In short: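 Freshly isolated rat brain synaptosomes (P2 fraction, Gray–Whittaker method) used for uptake; for NA uptake the particles came from hypothalamus of male rats.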

[3] = target: T2, Serotonin (5HT) reuptake (Rattus norvegicus, UniProt P31652); assay: Serotonin (5HT) reuptake inhibition in rat brain synaptosomes (P2 fraction); format: biochemical; details: for inhibition at 10 µM: read-out: Serotonin reuptake, % inhibition [10 μM]
T2 construct: synaptosomes are freshly isolated from areas of rat brain; from tissue; host or cells: rat brain synaptosomes (P2 fraction)
T2 sequence (P31652 whole entry): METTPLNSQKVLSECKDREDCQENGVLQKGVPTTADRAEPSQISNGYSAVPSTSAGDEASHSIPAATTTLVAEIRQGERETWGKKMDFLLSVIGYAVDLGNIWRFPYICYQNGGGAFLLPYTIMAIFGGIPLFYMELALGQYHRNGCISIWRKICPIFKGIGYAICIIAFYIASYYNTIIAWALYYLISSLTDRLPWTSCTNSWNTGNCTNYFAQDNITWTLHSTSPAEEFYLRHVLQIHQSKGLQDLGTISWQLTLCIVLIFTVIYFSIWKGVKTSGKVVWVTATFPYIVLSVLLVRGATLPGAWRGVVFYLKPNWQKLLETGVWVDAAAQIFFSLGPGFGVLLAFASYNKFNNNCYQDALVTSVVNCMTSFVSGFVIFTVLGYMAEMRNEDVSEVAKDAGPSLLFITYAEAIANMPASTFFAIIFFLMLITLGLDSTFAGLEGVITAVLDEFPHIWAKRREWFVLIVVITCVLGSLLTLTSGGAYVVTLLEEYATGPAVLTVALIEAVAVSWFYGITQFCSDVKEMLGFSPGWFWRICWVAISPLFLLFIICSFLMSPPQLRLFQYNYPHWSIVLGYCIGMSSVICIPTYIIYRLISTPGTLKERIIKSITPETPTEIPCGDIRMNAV
Source text: Noradrenaline (NA) and Serotonin (5HT) Reuptake Inhibition
In order to be able to carry out these studies in vitro, synaptosomes are freshly isolated from areas of rat brain. A so-called “P2” fraction prepared by the method of Gray and Whittaker (E. G. Gray and V. P. Whittaker (1962) J. Anat. 76, 79-88) is used in each case. For the NA uptake, these vesicular particles are isolated from the hypothalamus of male rat brains.
A detailed description of the method will be found in the literature (M. Ch. Frink, H. H. Hennies, W. Englberger, M. Haurand and B. Wilffert (1996) Arzneim.-Forsch./Drug Res. 46 (III), 11, 1029-1036).

[4] = read-out: Na reuptake, % inhibition [10 μM]
[5] = read-out: NA reuptake, % inhibition [10 μM]
[6] = 1 μM test substance, inhibition of specific [3H]-naloxone binding

Row | SMILES | inhibition at 1 µM [1] [%] | Ki [1] [nM] | Ki [2] [nM] | inhibition at 10 µM [2, 4] [%] | Ki [3] [nM] | inhibition at 10 µM [3] [%] | inhibition at 1 µM ([1]; 1 μM, sulfonamides (Table 17)) [%] | Ki ([1]; sulfonamides (Table 17)) [nM] | inhibition at 10 µM [2, 5] [%] | inhibition at 1 µM [1, 6] [%]
1 | CN(C)C(c1ccccc1)C1CCC(N(Cc2ccccc2)C(=O)c2ccc(F)cc2)CC1 (stereo not drawn) [compound 103, N-benzyl-N-(4-((dimethylamino)(phenyl)methyl)cyclohexyl)-4-fluoro-benzamide hydrochloride] | 99 | 8.8 | 400 | 87 | 560 | 93 | – | – | – | –
2 | CN(C)C(c1ccccc1)C1CCC(N(Cc2ccccc2)C(=O)c2ccccc2)CC1 (stereo not drawn) [compound 104, N-benzyl-N-(4-((dimethylamino)(phenyl)methyl)cyclohexyl)benzamide hydrochloride] | 92 | 14 | 320 | 92 | 440 | 90 | – | – | – | –
3 | CCC(CC)C(=O)N(c1ccccc1)C1CCC(C(c2ccccc2)N(C)C)CC1 (stereo not drawn) [compound 105, N-(4-((dimethylamino)(phenyl)methyl)cyclohexyl)-2-ethyl-N-phenylbutanamide hydrochloride] | 100 | 20 | – | 88 | – | 85 | – | – | – | –
4 | CN(C)C(c1ccccc1)C1CCC(NS(=O)(=O)c2ccc(Cl)cc2)CC1 (stereo not drawn) [compound 106, 4-chloro-N-(4-((dimethylamino)(phenyl)methyl)cyclohexyl)benzene-sulfonamide hydrochloride] | – | – | – | – | – | 83 | 96 | 3.7 | 68 | –
5 | COc1ccc(S(=O)(=O)NC2CCC(C(c3ccccc3)N(C)C)CC2)cc1 (stereo not drawn) [compound 107, N-(4-((dimethylamino)(phenyl)methyl)cyclohexyl)-4-methoxybenzene-sulfonamide hydrochloride] | – | – | – | – | – | 90 | 99 | 15 | 78 | –
6 | CN(C)C(c1ccccc1)C1CCC(NS(=O)(=O)c2ccc(C(C)(C)C)cc2)CC1 (stereo not drawn) [compound 108, 4-tert-butyl-N-(4-((dimethylamino)(phenyl)methyl)cyclohexyl)benzene-sulfonamide hydrochloride] | – | – | – | – | – | 75 | 92 | 22 | 75 | –
7 | CN(C)C(c1ccccc1)C1CCC(NS(=O)(=O)c2ccccc2[N+](=O)[O-])CC1 (stereo not drawn) [compound 109, N-(4-((dimethylamino)(phenyl)methyl)cyclohexyl)-2-nitrobenzene-sulfonamide hydrochloride] | – | – | – | – | – | 93 | 92 | 77 | 76 | –
8 | CN(C)C(c1ccccc1)C1CCC(NS(=O)(=O)c2ccccc2)CC1 (stereo not drawn) [compound 110, N-(4-((dimethylamino)(phenyl)methyl)cyclohexyl)benzenesulfonamide hydrochloride] | – | – | – | – | – | 86 | 93 | 25 | 62 | –
9 | CN(C)C(c1ccc(F)cc1)C1CCC(O)CC1 (stereo not drawn) [compound 112, 4-[dimethylamino-(4-fluorophenyl)-methyl]-cyclohexanol] | – | – | – | – | – | 82 | – | – | 74 | 66
10 | CN(C)C(c1cccc(F)c1)C1CCC(O)CC1 (stereo not drawn) [compound 113, 4-[dimethylamino-(3-fluorophenyl)-methyl]-cyclohexanol] | – | – | – | – | – | 83 | – | – | 82 | 46
11 | CN(C)C(c1ccc(Cl)cc1)C1CCC(O)CC1 (stereo not drawn) [compound 114, 4-[(4-chlorophenyl)-dimethylamino-methyl]-cyclohexanol] | – | – | – | – | – | 64 | – | – | 93 | 43
12 | CN(C)C(c1cccs1)C1CCC(O)CC1 (stereo not drawn) [compound 115, 4-(dimethylamino-thiophen-2-yl-methyl)-cyclohexanol] | – | – | – | – | – | 63 | – | – | 47 | 61
13 | CN(C)C(CCc1ccccc1)C1CCC(O)CC1 (stereo not drawn) [compound 116, 4-(1-dimethylamino-3-phenyl-propyl)-cyclohexanol] | – | – | – | – | – | 74 | – | – | 95 | 37
